Laboratory results from PMC6429159, “Evolution and Biological Evaluation of Matrinic Derivatives with Amantadine Fragments As New Anti-Influenza Virus Agents” (Molecules, 2019).
Where a name gives a salt, the structure may show the parent alone.

How the values were obtained:
[1] = test system: influenza virus A/hanfang/359/95 (H3N2); experiment: organism not typed; type: cell-based; conditions: MDCK cells; for IC50: 50% virus-inhibitory concentration after 40 hr at 37 °C, – = no anti-H3N2 activity at the maximum non-toxic concentration; for anti-H3N2 activity (in words): CPE assay
[2] = test system: MDCK cells; experiment: Cytotoxicity assay; type: cell-based; conditions: 50% cytotoxic concentration, 48 hr
Experimental: A three-fold dilution compound was added to cell monolayer, and the cells continued to be cultivated for 48 hr, and then the CPE was recorded. The TC50 value of each compound was calculated by the methods of Reed & Muench.

SMILES	melting point	IC50 [1] [µM]	TC50 [2] [µM]	anti-H3N2 activity (in words) [1]
O=C(OCCCC[C@@H]1[C@H]2CCCN3CCC[C@@H](CN1S(=O)(=O)c1ccc(C(F)(F)F)cc1)[C@@H]23)C12CC3CC(CC(C3)C1)C2 (as salt: hydrochloride) [Compound 9a, 12N-p-Trifluoromethlybenzenesulfonyl matrinic butyl adamantine-1’-carboxylate hydrochloride]	231 °C (dec.)	–	–	–
O=C(CC12CC3CC(CC(C3)C1)C2)OCCCC[C@@H]1[C@H]2CCCN3CCC[C@@H](CN1S(=O)(=O)c1ccc(C(F)(F)F)cc1)[C@@H]23 (as salt: hydrochloride) [Compound 9b, 12N-p-Trifluoromethlybenzenesulfonyl matrinic butyl-1’-adamantaneacetatehydrochloride]	227 °C (dec.)	–	–	–
O=C(OCCCC[C@@H]1[C@H]2CCCN3CCC[C@@H](CN1S(=O)(=O)c1ccc(C(F)(F)F)cc1)[C@@H]23)C12CC3CC(CC(Br)(C3)C1)C2 (as salt: hydrochloride) [Compound 9c, 12N-p-Trifluoromethlybenzenesulfonylmatrinicbutyl-3’-bromoadamantane-1’-carboxylate hydrochloride]	222 to 223 °C	–	–	–
O=C(OCCCC[C@@H]1[C@H]2CCCN3CCC[C@@H](CN1S(=O)(=O)c1cccc(C(F)(F)F)c1)[C@@H]23)C12CC3CC(CC(C3)C1)C2 (as salt: hydrochloride) [Compound 9d, 12N-m-Trifluoromethlybenzenesulfonyl matrinic butyl adamantine-1’-carboxylate hydrochloride]	190 to 191 °C	–	–	–
O=C(CC12CC3CC(CC(C3)C1)C2)OCCCC[C@@H]1[C@H]2CCCN3CCC[C@@H](CN1S(=O)(=O)c1cccc(C(F)(F)F)c1)[C@@H]23 (as salt: hydrochloride) [Compound 9e, 12N-m-Trifluoromethlybenzenesulfonyl matrinic butyl-1’-adamantaneacetatehydrochloride]	155 to 156 °C	–	–	–
O=C(OCCCC[C@@H]1[C@H]2CCCN3CCC[C@@H](CN1S(=O)(=O)c1ccc(C(F)(F)F)cc1)[C@@H]23)C12CC3CC(CC1C3)C2 (as salt: hydrochloride) [Compound 9g, 12N-p-Trifluoromethlybenzenesulfonylmatrinicbutyl-3’-noradamantane-1’-carboxylate hydrochloride]	186 to 187 °C	–	–	–
O=C(OCCCC[C@@H]1[C@H]2CCCN3CCC[C@@H](CN1S(=O)(=O)c1cccc(C(F)(F)F)c1)[C@@H]23)C12CC3CC(CC1C3)C2 (as salt: hydrochloride) [Compound 9h, 12N-m-Trifluoromethlybenzenesulfonylmatrinicbutyl-3’-noradamantane-1’-carboxylate hydrochloride]	207 °C (dec.)	–	–	–
O=C(CC1CC2CCC1C2)OCCCC[C@@H]1[C@H]2CCCN3CCC[C@@H](CN1S(=O)(=O)c1ccc(C(F)(F)F)cc1)[C@@H]23 (stereo partly shown) (as salt: hydrochloride) [Compound 9i, 12N-p-Trifluoromethlybenzenesulfonyl matrinic butyl-2’-norbornane acetate hydrochloride]	223 °C (dec.)	–	–	–
CC(C)(C)C(=O)OCCCC[C@@H]1[C@H]2CCCN3CCC[C@@H](CN1S(=O)(=O)c1ccc(C(F)(F)F)cc1)[C@@H]23 (as salt: hydrochloride) [Compound 9k, 12N-p-Trifluoromethlybenzenesulfonyl matrinic butyl pivalate hydrochloride]	219 to 221 °C	–	–	–
CC(C)(C)C(=O)OCCCC[C@@H]1[C@H]2CCCN3CCC[C@@H](CN1S(=O)(=O)c1cccc(C(F)(F)F)c1)[C@@H]23 (as salt: hydrochloride) [Compound 9l, 12N-m-Trifluoromethlybenzenesulfonyl matrinicbutylpivalate hydrochloride]	162 to 164 °C	–	–	–
CCCC[C@@H]1[C@H]2CCCN3CCC[C@@H](CN1S(=O)(=O)c1ccc(C(F)(F)F)cc1)[C@@H]23 [Compound 7a]	–	21.3 ± 1.9	79.8 ± 4.7	–
CCCC[C@@H]1[C@H]2CCCN3CCC[C@@H](CN1S(=O)(=O)c1cccc(C(F)(F)F)c1)[C@@H]23 [Compound 7b]	–	28.9 ± 2.4	86.6 ± 2.3	–
CCCC[C@@H]1[C@H]2CCCN3CCC[C@@H](CN1S(=O)(=O)c1ccccc1C(F)(F)F)[C@@H]23 [Compound 7c]	–	50 ± 1.1	86.6 ± 3.8	–
O=C(OCCCC[C@@H]1[C@H]2CCCN3CCC[C@@H](CN1S(=O)(=O)c1ccc(C(F)(F)F)cc1)[C@@H]23)C12CC3CC(CC(C3)C1)C2 [Compound 9a, 12N-p-Trifluoromethlybenzenesulfonyl matrinic butyl adamantine-1’-carboxylate hydrochloride]	–	16.5 ± 2.9	19.5 ± 2.8	–
O=C(CC12CC3CC(CC(C3)C1)C2)OCCCC[C@@H]1[C@H]2CCCN3CCC[C@@H](CN1S(=O)(=O)c1ccc(C(F)(F)F)cc1)[C@@H]23 [Compound 9b, 12N-p-Trifluoromethlybenzenesulfonyl matrinic butyl-1’-adamantaneacetatehydrochloride]	–	28.4 ± 2.3	61.9 ± 1.9	–
O=C(CC12CC3CC(CC(C3)C1)C2)OCCCC[C@@H]1[C@H]2CCCN3CCC[C@@H](CN1S(=O)(=O)c1cccc(C(F)(F)F)c1)[C@@H]23 [Compound 9e, 12N-m-Trifluoromethlybenzenesulfonyl matrinic butyl-1’-adamantaneacetatehydrochloride]	–	11.1 ± 1.5	63.4 ± 2.3	–
O=C(OCCCC[C@@H]1[C@H]2CCCN3CCC[C@@H](CN1S(=O)(=O)c1ccc(C(F)(F)F)cc1)[C@@H]23)C12CC3CC(CC1C3)C2 [Compound 9g, 12N-p-Trifluoromethlybenzenesulfonylmatrinicbutyl-3’-noradamantane-1’-carboxylate hydrochloride]	–	–	38.5 ± 6.6	complete loss in activity
O=C(OCCCC[C@@H]1[C@H]2CCCN3CCC[C@@H](CN1S(=O)(=O)c1cccc(C(F)(F)F)c1)[C@@H]23)C12CC3CC(CC1C3)C2 [Compound 9h, 12N-m-Trifluoromethlybenzenesulfonylmatrinicbutyl-3’-noradamantane-1’-carboxylate hydrochloride]	–	–	59.7 ± 0.0	complete loss in activity
O=C(CC1CC2CCC1C2)OCCCC[C@@H]1[C@H]2CCCN3CCC[C@@H](CN1S(=O)(=O)c1ccc(C(F)(F)F)cc1)[C@@H]23 (stereo partly shown) [Compound 9i, 12N-p-Trifluoromethlybenzenesulfonyl matrinic butyl-2’-norbornane acetate hydrochloride]	–	25.7 ± 4.8	129.0 ± 20.9	–
CC(C)(C)C(=O)OCCCC[C@@H]1[C@H]2CCCN3CCC[C@@H](CN1S(=O)(=O)c1ccc(C(F)(F)F)cc1)[C@@H]23 [Compound 9k, 12N-p-Trifluoromethlybenzenesulfonyl matrinic butyl pivalate hydrochloride]	–	–	94.3 ± 11.3	–
CC(C)(C)C(=O)OCCCC[C@@H]1[C@H]2CCCN3CCC[C@@H](CN1S(=O)(=O)c1cccc(C(F)(F)F)c1)[C@@H]23 [Compound 9l, 12N-m-Trifluoromethlybenzenesulfonyl matrinicbutylpivalate hydrochloride]	–	18.2 ± 3.2	52.9 ± 8.0	–
